Earlier results as cited in US9403744B2, “Process for the production of alkyl ethers by the etherification of isobutene” (SAIPEM S.p.A., priority 2006, dated 2016).

Details: in water

Compound	Solubility in H2O [w %]
CCOC(C)(C)C [ETBE, ethyl ter-butyl ether]	1.2
CCC(C)(C)OC [TAME, methyl ter-amyl ether]	1.1
